Measurements published in patent US20090169700A1, “Healthy Food Product” (priority 2006, published 2009).
Ends that are not written are not given here.

Assay: Water solubility at 20° C. and pH 6.5 (turbid appearance, 10 mg peptide in 10 ml de-mineralised water)
Assay type: physicochemical

Row | Compound | Peptide category (water solubility)
1 | C[C@H](N)C(=O)N[C@@H](C)C(=O)N[C@@H](C)C(=O)N[C@@H](C)C(=O)N[C@@H](C)C(=O)N[C@@H](C)C(=O)O [AAAAAA] | Insoluble peptides
2 | AAAAAAAA [AAAAAAAA] | Insoluble peptides
3 | DDDDDD [DDDDDD] | Soluble peptides

Other lines, results leading:

Row | Peptide category (water solubility) | Compound
4 | Soluble peptides | VEWEME [VEWEME]
5 | Soluble peptides | EAEWEY [EAEWEY]
6 | Insoluble peptides | LLLLLL [LLLLLL]
7 | Soluble peptides | GSGGSG [GSGGSG]
